Assay results published in patent US11926625B2, “HPK1 antagonists and uses thereof” (Nimbus Saturn, Inc., priority 2021, dated 2024).
pIC50: −log10 of the molar value.

Molecular target: T1, HPK1 (Homo sapiens, UniProt Q92918)
T1 construct: purchased Invitrogen
Test: HPK1 biochemical enzyme assay (microfluidic mobility shift, Caliper)
Settings: 1.5 nM HPK1 (Invitrogen), 1 mM ATP, 30 min preincubation, 60 min at RT, top concentration 3 μM; read-out: HPK1 1000UMATP caliper IC50
Procedure: Example 20. HPK1 Biochemical Enzyme Assay
HPK1 biochemical enzyme assay: HPK1 enzyme inhibition was measured using a microfluidic mobility shift assay. Reactions were performed in a 384-well plate, containing 1.5 nM HPK1 (Invitrogen), in assay buffer (Cama Biosciences; pH 7.4). Test compounds were titrated in ten point curves (top final assay concentration 3 μM), and preincubated with enzyme/substrate mix for 30 min prior to initiation of the reaction by addition of ATP (1 mM final concentration) and substrate (1 μM final concentration; Carna Biosciences) diluted in assay buffer supplemented by MgCl2 (final assay concentration of 5 mM). Following 60 min incubation at RT, the reaction was terminated by addition of 60 μl/well termination buffer (Carna Biosciences) and signal determination using a Caliper EZ Reader (Perkin Elmer, UK).

T1 sequence (Q92918 whole entry): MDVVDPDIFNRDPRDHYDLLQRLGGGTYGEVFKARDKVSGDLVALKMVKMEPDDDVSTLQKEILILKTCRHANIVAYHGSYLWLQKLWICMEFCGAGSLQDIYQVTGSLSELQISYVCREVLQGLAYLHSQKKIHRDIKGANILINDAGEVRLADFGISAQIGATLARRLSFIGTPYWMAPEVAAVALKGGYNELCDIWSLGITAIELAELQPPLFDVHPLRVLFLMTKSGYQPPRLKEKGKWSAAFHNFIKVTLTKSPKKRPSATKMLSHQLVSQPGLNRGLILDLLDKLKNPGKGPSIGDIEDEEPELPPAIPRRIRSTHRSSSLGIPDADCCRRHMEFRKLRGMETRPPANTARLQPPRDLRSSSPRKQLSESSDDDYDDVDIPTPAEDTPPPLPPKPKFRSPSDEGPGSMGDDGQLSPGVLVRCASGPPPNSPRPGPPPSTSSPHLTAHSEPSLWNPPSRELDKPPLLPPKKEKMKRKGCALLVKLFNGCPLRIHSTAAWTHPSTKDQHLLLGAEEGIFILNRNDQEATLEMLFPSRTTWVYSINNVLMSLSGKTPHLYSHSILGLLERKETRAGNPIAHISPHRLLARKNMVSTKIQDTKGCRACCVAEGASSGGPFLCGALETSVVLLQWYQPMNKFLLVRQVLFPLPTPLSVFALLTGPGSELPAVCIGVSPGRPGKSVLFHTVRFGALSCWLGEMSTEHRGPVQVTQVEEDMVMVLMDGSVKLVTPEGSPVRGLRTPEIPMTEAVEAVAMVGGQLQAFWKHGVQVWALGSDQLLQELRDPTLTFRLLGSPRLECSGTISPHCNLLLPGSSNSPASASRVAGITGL

Compound	pIC50
O=C1NCc2c(-c3ccncc3)ccc(Nc3ccc(N4CCOCC4)cn3)c21 [Compound I-26, 7-[(5-morpholino-2-pyridyl)amino]-4-(4-pyridyl) isoindolin-1-one]	> 6.00
CNc1nccc(-c2ccc(Nc3ccc(N4CCN(C)CC4)cn3)c3c2CNC3=O)n1 [Compound I-49, 4-[2-(methylamino)pyrimidin-4-yl]-7-[[5-(4-methylpiperazin-1-yl)-2-pyridyl]amino] isoindolin-1-one]	> 6.00
CN1CCN(c2ccc(Nc3ccc(-c4ccccn4)c4c3C(=O)NC4)nc2)CC1 [Compound I-31, 7-[[5-(4-methylpiperazin-1-yl)-2-pyridyl]amino]-4-(2-pyridyl) isoindolin-1-one]	> 6.00
CN1CCN(c2ccc(Nc3ccc(-c4ccnc(OCC5CCC5)c4)c4c3C(=O)NC4)nc2)CC1 [Compound I-47, 4-[2-(cyclobutylmethoxy)-4-pyridyl]-7-[[5-(4-methylpiperazin-1-yl)-2-pyridyl]amino] isoindolin-1-one]	> 6.00
Cn1cnc(-c2ccc(Nc3ccc(N4CCNCC4)cn3)c3c2CNC3=O)c1-c1ccccc1 [Compound I-77, 4-(1-methyl-5-phenyl-1H-imidazol-4-yl)-7-((5-(piperazin-1-yl)pyridin-2-yl)amino) isoindolin-1-one]	5.30 to 6.00
Cc1cccc(C#Cc2cc(-c3ccc(Nc4ccc(N5CCN(C)CC5)cn4)c4c3CNC4=O)ccn2)c1 [Compound I-64]	> 6.00
O=C1NCc2c(-c3cccnc3)ncc(Nc3ccc(N4CCNCC4)cn3)c21 [Compound I-7, 7-[(5-piperazin-1-yl-2-pyridyl)amino]-4-(3-pyridyl)-2,3-dihydropyrrolo [3,4-c]pyridin-1-one]	5.30 to 6.00
O=C1NCc2c(-c3cnco3)ncc(Nc3ccc(N4CCNCC4)cn3)c21 [Compound I-18, 4-oxazol-5-yl-7-[(5-piperazin-1-yl-2-pyridyl)amino]-2,3-dihydropyrrolo [3,4-c]pyridin-1-one]	5.30 to 6.00
CN1CCN(c2ccc(Nc3ccc(-c4ccncc4N4CC5CCC(C4)O5)c4c3C(=O)NC4)nc2)CC1 [Compound I-74]	5.30 to 6.00
O=C1NCc2c(-c3ccncc3)ncc(Nc3ccc(N4CCNCC4)cn3)c21 [Compound I-1, 7-[(5-piperazin-1-yl-2-pyridyl)amino]-4-(4-pyridyl)-2,3-dihydropyrrolo [3,4-c]pyridin-1-one]	> 6.00
CS(=O)(=O)c1ncc(Nc2ccc(N3CCNCC3)cn2)c2c1CNC2=O [Compound I-5, 4-methylsulfonyl-7-[(5-piperazin-1-yl-2-pyridyl)amino]-2,3-dihydropyrrolo [3,4-c]pyridin-1-one]	5.30 to 6.00
O=C1NCc2c(-c3cn(-c4ccccc4)cn3)ccc(Nc3ccc(N4CCNCC4)cn3)c21 [Compound I-80, 4-(1-phenyl-1H-imidazol-4-yl)-7-((5-(piperazin-1-yl)pyridin-2-yl)amino) isoindolin-1-one]	5.30 to 6.00
CN1CCN(c2ccc(Nc3ccc(-c4cc(N5CC6CCC(C5)O6)ncn4)c4c3C(=O)NC4)nc2)CC1 [Compound I-61, 4-(6-(8-oxa-3-azabicyclo [3.2.1]octan-3-yl)pyrimidin-4-yl)-7-((5-(4-methylpiperazin-1-yl)pyridin-2-yl)amino) isoindolin-1-one]	5.30 to 6.00
O=C1NCc2c(-c3ccncc3)ncc(Nc3ccc(N4CCOCC4)cn3)c21 [Compound I-14, 7-[(5-morpholino-2-pyridyl)amino]-4-(4-pyridyl)-2,3-dihydropyrrolo [3,4-c]pyridin-1-one]	5.30 to 6.00
O=C1NCc2c(-c3ncco3)ncc(Nc3ccc(N4CCNCC4)cn3)c21 [Compound I-10, 4-oxazol-2-yl-7-[(5-piperazin-1-yl-2-pyridyl)amino]-2,3-dihydropyrrolo [3,4-c]pyridin-1-one]	5.30 to 6.00
CN1CCN(c2ccc(Nc3ccc(-c4ccncn4)c4c3C(=O)NC4)nc2)CC1 [Compound I-45, 7-[[5-(4-methylpiperazin-1-yl)-2-pyridyl]amino]-4-pyrimidin-4-yl-isoindolin-1-one]	> 6.00
CN1CCN(c2ccc(Nc3ccc(-c4ccnc(N5CCOCC5)n4)c4c3C(=O)NC4)nc2)CC1 [Compound I-51, 7-[[5-(4-methylpiperazin-1-yl)-2-pyridyl]amino]-4-(2-morpholinopyrimidin-4-yl)isoindolin-1-one]	5.30 to 6.00
CN1CCN(c2ccc(Nc3ccc(-c4ccc(F)c(C5CCOCC5)c4)c4c3C(=O)NC4)nc2)CC1 [Compound I-87, 4-(4-fluoro-3-(tetrahydro-2H-pyran-4-yl)phenyl)-7-((5-(4-methylpiperazin-1-yl)pyridin-2-yl)amino) isoindolin-1-one]	5.30 to 6.00
CN1CCN(c2ccc(Nc3ccc(-c4ccnc(-c5c(F)cccc5F)c4)c4c3C(=O)NC4)nc2)CC1 [Compound I-40, 4-[2-(2,6-difluorophenyl)-4-pyridyl]-7-[[5-(4-methylpiperazin-1-yl)-2-pyridyl]amino] isoindolin-1-one]	5.30 to 6.00
CN1CCN(c2ccc(Nc3ccc(-c4ccnc(C5CCCCO5)c4)c4c3C(=O)NC4)nc2)CC1 (stereo not shown) [Compound I-65, 7-((5-(4-methylpiperazin-1-yl)pyridin-2-yl)amino)-4-(2-(tetrahydro 2H-pyran-2-yl)pyridin-4-yl)isoindolin-1-one]	5.30 to 6.00
Cn1cc(-c2ncc(Nc3ccc(N4CCNCC4)cn3)c3c2CNC3=O)cn1 [Compound I-17, 4-(1-methylpyrazol-4-yl)-7-[(5-piperazin-1-yl-2-pyridyl)amino]-2,3-dihydropyrrolo [3,4-c]pyridin-1-one]	5.30 to 6.00
Cc1cc(-c2ncc(Nc3ccc(N4CCNCC4)cn3)c3c2CNC3=O)ccn1 [Compound I-9, 4-(2-methyl-4-pyridyl)-7-[(5-piperazin-1-yl-2-pyridyl)amino]-2,3-dihydropyrrolo [3,4-c]pyridin-1-one]	5.30 to 6.00
CN1CCN(c2ccc(Nc3ccc(-c4ccnc(C5CCOCC5)c4)c4c3C(=O)NC4)nc2)CC1 [Compound I-44, 7-[[5-(4-methylpiperazin-1-yl)-2-pyridyl]amino]-4-(2-tetrahydropyran-4-yl-4-pyridyl) isoindolin-1-one]	5.30 to 6.00
O=C1NCc2c(Cc3ccccc3)ccc(Nc3ccc(N4CCNCC4)cn3)c21 [Compound I-83, 4-benzyl-7-((5-(piperazin-1-yl)pyridin-2-yl)amino) isoindolin-1-one]	5.30 to 6.00
CN1CCN(c2ccc(Nc3ccc(-c4cncn4C)c4c3C(=O)NC4)nc2)CC1 [Compound I-54, 4-(3-methylimidazol-4-yl)-7-[[5-(4-methylpiperazin-1-yl)-2-pyridyl]amino] isoindolin-1-one]	> 6.00
CN1CCN(c2ccc(Nc3ccc(-c4ccncc4C4CCOCC4)c4c3C(=O)NC4)nc2)CC1 [Compound I-70, 7-((5-(4-methylpiperazin-1-yl)pyridin-2-yl)amino)-4-(3-(tetrahydro-2H-pyran-4-yl)pyridin-4-yl)isoindolin-1-one]	5.30 to 6.00
CN1CCN(c2ccc(Nc3ccc(-c4ccnc(N5CC6CCC(C5)O6)c4)c4c3C(=O)NC4)nc2)CC1 [Compound I-41]	5.30 to 6.00
O=C1NCc2c(-c3ccccn3)ncc(Nc3ccc(N4CCNCC4)cn3)c21 [Compound I-4, 7-[(5-piperazin-1-yl-2-pyridyl)amino]-4-(2-pyridyl)-2,3-dihydropyrrolo [3,4-c]pyridin-1-one]	5.30 to 6.00
